Data published in a melting point compilation (Tetko et al.; mined from patent text by program, amines drawn as free bases though some values may be those of a salt).

| Structure (SMILES) | melting point |
| --- | --- |
| CCCCCCCCCCCCCCCCc1cc(-c2ccccn2)nc(-c2ccccn2)c1 | 97.5 to 99 °C |
| CCN(CC)CCn1nc2c3c(c(NCCN4C(=O)c5ccccc5C4=O)ccc31)Sc1cc(OC)ccc1-2 | 171 to 172 °C |
| Nc1nnc(-c2cc3c(Oc4ccc(Cl)cc4)cncc3s2)s1 | > 270 °C |
| CNC(=O)NS(=O)(=O)c1ccccc1OC(Cl)=CCl | 225 to 226 °C |
| Cc1ccc2c(c1)S(=O)(=O)N=CN2C1CC1 | 192 to 195 °C |
| O=C(/C=C/c1ccc2cc[nH]c2c1)CC(=O)/C=C/c1cc(O)ccc1Br | 196 to 200 °C |
| CC1CSC2=C(O1)c1cc(N3CCCCC3)ccc1C(=O)C2=O (centres undefined) | 225 to 226 °C |
| CC(Cn1nccn1)n1nnc2cc3c(=O)n(C(C)Cn4ncnn4)nnc3cc2c1=O (centres undefined) | 139 to 140 °C |
| Cn1cc(-c2cc3cccnc3[nH]2)c2cc(OCC(O)CO)ccc21 (centres undefined) | 182 to 185 °C |
| CCOC(=O)c1nc(N)sc1-c1nc2ccccn2c1C | 180 to 182 °C |
| Brc1ccc(O[C@H]2CCNC[C@H]2c2ccccc2)cc1 (relative stereo) | 113 to 115 °C |
| Cc1cc(C)cc(C(=O)c2c(C(C)C)c(=O)[nH]c(=O)n2CC2=CC(CO)C(CO)C2)c1 (centres undefined) | 81 to 82 °C |
| Cc1ccc(S(=O)(=O)NCCNC(C)C)cc1 | 76 to 78 °C |
| CCn1nc2c(N)nc3ccccc3c2c1CC1(F)CCOCC1 | 275 to 277 °C |
| CCN(CC)S(=O)(=O)c1ccc(Oc2ccc(S(=O)(=O)C(F)(F)F)cc2)cc1 | 83 to 84 °C |
| N#Cc1cc(-c2nc3cncnc3[nH]2)ccc1Oc1ccc(F)cc1 | > 250 °C |
| CN(C)c1nn(-c2cc(F)c(C#N)cc2F)c(=O)n1C(F)F | 188 to 190 °C |
| C=C(C)C(=O)OCCCCCCOc1ccc(/C=C/C(=O)OC)cc1 | 45 to 50 °C |
| CC(C)C(=O)OC(OC(=O)NC1(C(=O)O)CC1)C(C)C (centres undefined) | 127 to 129 °C |
| COc1ccc(-c2cc(OCC(=O)O)nc(Nc3ccc(OC)c(Cl)c3)n2)cc1 | 258 to 260 °C |
| COCC1OC(n2c(Cl)nc3cc(Cl)c(Cl)cc32)C(O)C1O (centres undefined) | 104 to 105 °C |
| CCOC(=O)/C=C/C=C/c1ccc(OCC(F)(F)C(F)F)cc1 | 65 to 66 °C |
| COCCOc1ccc(/C=C/C(=O)O)c(Oc2ncc(Br)cc2C)c1 | 157 to 158 °C |
| O=C(Nn1c(=O)c(=O)[nH]c2ccc3ccccc3c21)c1ccccc1 | > 300 °C |
| CSCC(=O)C(Cc1ccc2ccccc2c1)NC(=O)C(CC(C)C)NC(=O)OCc1ccccc1 (centres undefined) | 101 to 103 °C |

| Structure (SMILES) | melting point |
| --- | --- |
| CCS(=O)(=O)C(=CNc1ccc(Cl)cc1)S(=O)(=O)CC | 173 to 175 °C |
| CC(C(=O)NC(C)(C#N)C(C)C)c1ccc(Br)cc1 (centres undefined) | 98 to 99 °C |
| NC(=O)c1ccc(OCC(F)(F)F)cc1 | 177 to 178 °C |
| CC(Cc1c[nH]c2ccccc12)(NC(=O)OC1C2CC3CC(C2)CC1C3)C(=O)NCC(CSCC(=O)O)c1ccccc1 (centres undefined) | 78 to 93 °C |
| CC(C)(C)C1=CC=CC(c2ccccc2Cl)(C(C)(C)C)C1O (centres undefined) | 89.5 to 91 °C |
| CC(C)(C)C(=O)Nc1nc2[nH]c3cccc(Cl)c3c2c(=O)[nH]1 | 186 to 190 °C |
| Cc1cccc(COc2cccnc2NC(=N)Nc2ccc(Cl)cc2)c1F | 179 to 181 °C |
| COC(=O)COCCOc1ccc(N)cc1 | 51 to 52.5 °C |
| COc1ccc(-c2c(Cl)ncnc2NS(=O)(=O)c2ccc(OC)cc2)cc1 | 165 to 167 °C |
| CCCOC(=NC#N)c1ccc(N)nc1 | 150 °C |
| COCCN(CCOC)c1ccc(Nc2ncc3c(C)c(Br)c(=O)n(C4CCCC4)c3n2)nc1 | 94 to 95 °C |
| CC(C)C(C)C(=O)NC(C)(Cc1c[nH]c2ccccc12)C(=O)NCCc1ccccc1 (centres undefined) | 104 to 109 °C |
| CN(C(Cc1ccc(O)cc1)CN1CCN(c2ccccc2)CC1)S(=O)(=O)c1cccc2cnccc12 (centres undefined) | 201 °C |
| N#Cc1c2ccccc2c(C=O)c2ccccc12 | 270 to 275 °C |
| CCCCCCCCCCCCCCCCOCCOCCOC(=O)NCc1ccccn1 | 57 to 59 °C |
| CC(C)=CCCC(C)=CCCC(C)=CCCC(C)=CC=CC(C)=CC(=O)O | 45.5 to 46.5 °C |
| COc1ccc(CC(C)NC(=O)N(C)O)cc1OC (centres undefined) | 78 to 80 °C |
| Cc1nnc(-c2ccc3occ(-c4ccc(S(C)=O)c(F)c4)c3c2)o1 (centres undefined) | 168 to 169 °C |
| CN1CCC(=C2c3cc(Br)ccc3CC(=O)c3sccc32)CC1 | 172 to 173 °C |
| CS(=O)(=O)N(CCI)N(S(C)(=O)=O)S(C)(=O)=O | 136 to 138 °C |
| CC(Br)C(=O)c1ccc(CN2C(=O)c3ccccc3C2=O)s1 (centres undefined) | 127 to 130 °C |
| CCn1cccc(C2c3cc(C(=O)OC)ccc3OC(C)(C)C2O)c1=O (centres undefined) | 120 °C |
| COc1ccc(CCc2cc3cc(C#N)ccc3o2)c(C(=O)O)c1 | 179 to 182 °C |
| Cc1nc2c(N)nc3cccnc3c2n1CC1(O)CCN(C(=O)N2CCOCC2)CC1 | 245 to 248 °C |
| Cc1cc(-c2nc(-c3ccc(OC(F)(F)F)cc3)no2)nn1Cc1ccnc(N2CCN(C3CC3)CC2)c1 | 140 °C |

| Structure (SMILES) | melting point |
| --- | --- |
| CCCCCCCCCCCCCCCCC(O)CBr (centres undefined) | 53.5 to 54.5 °C |
| CCN(CC)CC1CCCCN1CCNC(=O)N1c2cc(C)ccc2C(=O)Nc2cccnc21 (centres undefined) | 183 to 185 °C |
| CCOc1ccc2c(c1)n(C1CCCCC1)c(=O)n2S(=O)(=O)c1ccc(N)cc1OC | 228 °C |
| COC12C=CC(CC1)CC2C(=O)O (centres undefined) | 77 to 81 °C |
| CC1Cc2cc3c(cc2C(c2ccc(Cl)cc2)=NN1c1nccs1)OCO3 (centres undefined) | 116 to 117 °C |
| C=CCOc1ccc(CC(=O)NCCCC)cc1 | 87 to 89 °C |
| CCn1ncc2c1ncc1c(=O)n(CCN3CCOCC3)c3cc(C)nn3c12 | 140 to 141 °C |
| COC(=O)c1cccc(NC(N)=S)c1 | 171 to 172 °C |
| C[Si](C)(C)C#Cc1ccc(C(=O)OCc2ccccc2)cc1OCc1ccccc1 | 110 to 112 °C |
| COc1cc(C)c(N)c(C)c1Cc1ccc(C(C)C)cc1 | 91 to 92 °C |
| COc1cc(N)c2nccc(C)c2c1F | 126 to 128 °C |
| CN(C)C1CCCC(C(=O)N2CCC(c3[nH]nc4c3C(=O)c3c(NC(=O)NN5CCOCC5)cccc3-4)CC2)C1 (centres undefined) | 153 to 155 °C |
| Cc1ccc(C(=Cc2nnnn2C)c2ccc(C)cc2F)c(F)c1 | 58 to 60 °C |
| CC1=NCC(=S)Nc2ccc(Cl)cc21 | 201 to 203 °C |
| Cc1cc2cc(CN3CCC(CCCC(=O)N4CCCCC4)CC3)cnc2cc1NC(=O)c1ccc(-c2ccc(F)cc2)cc1 | 179 °C |
| COc1ccc(C(=O)Nc2ccc(C(=O)O)cc2)cc1C1(C)CCCCC1 | 230 to 231 °C |
| COc1cc(C=CC(=O)C=Cc2ccc(OC(C)=O)c(OC)c2)ccc1OC(C)=O | 150 °C |
| Cc1ccc(S(=O)(=O)N2[C@H](CCCO)CC[C@H]2c2ccc(F)cc2)cc1 | 96 °C |
| CC(C)(C)OC(=O)N[C@@H](CCCCNC[C@H](O)CCl)C(=O)OC(C)(C)C | 87 to 88 °C |
| COc1ccccc1C1(O)CCN(C2CCN(C(=O)c3cc(C)cc(C)c3)C(Cc3ccccc3)C2)CC1 (centres undefined) | 213 °C |
| CCn1nc(OCCCc2ccc(OC(C)C)cc2Oc2ncc(C(F)(F)F)cc2Cl)cc1CCC(=O)O | 73 to 74 °C |
| Nc1noc(-c2ccc(CN3CCCCCC3)s2)n1 | 135 to 136 °C |
| CCOC(=O)C=CC=Cc1ccc(C=Cc2nc(-c3ccco3)oc2C)cc1 | 155 to 156 °C |
| CON(C)C(=O)Nc1ccc(OCCc2ccc3c(c2)CC(C)(C)O3)nc1 | 79 to 80 °C |
| CN1C(=O)CC(Sc2cc(C(C)(C)C)c(O)c(C(C)(C)C)c2)C1=O (centres undefined) | 132 °C |

| Structure (SMILES) | melting point |
| --- | --- |
| COc1cc2cc(C3=NNC(=O)CC3C)sc2cc1OC (centres undefined) | 204 to 206 °C |
| CN(C)C1(Cc2ccccc2)CCC(O)(c2cc3ccccc3n2C)CC1 (centres undefined) | 105 to 107 °C |
| CCCc1c(OCCCCCCc2cccc(OCCCC(C)(C)C(=O)O)c2CCC(=O)O)ccc2c1OCCC2=O | 85 to 87 °C |
| C=C(Cc1ccccc1)C(=O)O | 61 to 62 °C |
| CC(CCNC1=Nc2cccc3cccc1c23)c1cccnc1 (centres undefined) | 160 to 163 °C |
| CCN1CCN(C(=O)c2cc(N)cc(C(F)(F)F)c2)CC1 | 104 °C |
| Cc1ccc(OCc2nc3nccnc3c(=O)[nH]2)cc1 | 232 to 233 °C |
| O=[N+]([O-])c1cccc(-c2cnc3[nH]c4ccccc4c3c2)c1 | > 220 °C |
| CC(NCC(O)c1cc(Cl)c(N)c(Cl)c1)C1CCCCC1 (centres undefined) | 106 to 108 °C |
| CCCC(O)(C(=O)Nc1cc(Br)nc(OC)c1)C(C)C (centres undefined) | 116 °C |
| Cc1nc(N(C)C)sc1C(=O)c1ccc(N)c([N+](=O)[O-])c1 | 225 to 228 °C |
| CC(C)(C)c1ccc2c(c1)OCC(NNc1ncnc3c1ncn3C1OC(CO)C(O)C1O)C2 (centres undefined) | 88 to 90 °C |
| CN(C)C(=O)N1CC2(CCN(C(=O)Nc3nnc(-c4ccccc4)s3)CC2)c2ccccc21 | 267 °C |
| CC(C)c1cccc(C(C)C)c1NC(=O)Cc1c(-c2ccccc2)c2cc(Cl)ccc2n(C)c1=O | 237 to 238 °C |
| CCCCCn1c2ccccc2c2cc(C(=O)NN3CCCCC3)ccc21 | 158 to 159 °C |
| CCC(CC)N1C(=O)CCc2c(C)nc(Nc3ccc(C(C)C)cc3Br)nc21 | 124 to 126 °C |
| O=C1OCCC=C1c1ccc(F)c(F)c1 | 72 to 78 °C |
| COCn1ccnc1C(O)(c1ccccc1)c1ccccc1C(C)(C)C (centres undefined) | 149 to 150 °C |
| CS(=O)(=O)c1ccc(-c2sc(Cc3ccccc3)nc2-c2ccc(F)cc2)cc1 | 117 to 118 °C |
| CC(C)C[C@H](NC(=O)[C@H](Cc1c[nH]cn1)NC(=O)[C@H](Cc1cccc2ccccc12)NC(=O)OCc1ccccc1)[C@H](O)CO | 176 to 178 °C |
| CC(C)(C(N)=O)c1ccc(C(=O)O)cc1 | 218 to 219 °C |
| c1ccc(Nc2nc(OCC3CCCCC3)c3[nH]cnc3n2)cc1 | 196 to 199 °C |
| O=c1c(Cl)c(Cl)cnn1[C@@H]1C[C@H](O)[C@@H](O)[C@H]1O (racemic) | 163 °C |
| COc1nc2ccccc2cc1N(C)C(=O)N1CCN(c2cc(C)cc(C)c2)CC1 | 142 to 143 °C |
